Source: US20090048258A1, “Amide Compound” (priority 2005, published 2009)

Target: T1, Human DGAT1 (Homo sapiens, UniProt O75907)
T1 construct: my translation of the primer: M-G-DYKDDDD-GDRGSSRRR) (N); made in house; host or cells: Sf9 insect cells (recombinant baculovirus BAC-DGAT1, pFASTBAC1); microsome fraction
T1 sequence (O75907 1-488): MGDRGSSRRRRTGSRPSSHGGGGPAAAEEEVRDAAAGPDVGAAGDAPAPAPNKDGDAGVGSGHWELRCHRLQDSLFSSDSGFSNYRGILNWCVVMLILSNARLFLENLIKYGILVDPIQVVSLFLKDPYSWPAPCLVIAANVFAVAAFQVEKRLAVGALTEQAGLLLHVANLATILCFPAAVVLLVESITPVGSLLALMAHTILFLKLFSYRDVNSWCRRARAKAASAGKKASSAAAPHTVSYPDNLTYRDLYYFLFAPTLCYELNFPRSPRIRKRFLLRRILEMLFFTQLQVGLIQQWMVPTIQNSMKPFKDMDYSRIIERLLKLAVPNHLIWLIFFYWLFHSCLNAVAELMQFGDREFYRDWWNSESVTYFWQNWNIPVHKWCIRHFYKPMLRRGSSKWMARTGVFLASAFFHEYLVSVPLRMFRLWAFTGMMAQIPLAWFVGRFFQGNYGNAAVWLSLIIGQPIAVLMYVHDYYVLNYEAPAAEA
Assay: DGAT inhibitory activity: [14C]-triglyceride synthesis by DGAT1 high expression Sf9 microsome
Format: biochemical
Conditions: Table 2, 25 μM dioleoylglycerol, 25 μM [14C]-Oleoyl-CoA, 32° C., 15 min, read-out: DGAT inhibitory activity (according to IC50)
Method in brief: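 DGAT1 was overexpressed from recombinant baculovirus in Sf9 cells, and microsomes from these cells were the enzyme source. Reactions ran in 100 mM Tris-HCl pH 7.5, 250 mM sucrose, 150 mM MgCl2 and 0.01% BSA. [14C]-triglyceride was extracted into chloroform, separated by TLC and quantified by imaging plate, with inhibition calculated against control and blank (no microsome) counts.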

IC50, 0.05 to 0.5 µM:
CCOc1ccc(C(=O)CCC(=O)Nc2cc(-c3ccc(OCCN4CCOCC4)cc3)c3ccccc3n2)cc1OCC [Example 90, 4-(3,4-diethoxyphenyl)-N-{4-[4-(2-(morpholin-4-yl)ethoxy)phenyl]quinolin-2-yl}-4-oxobutanamide]
CCOc1ccc(C(=O)CCC(=O)Nc2cc(-c3ccncc3)c3ccccc3n2)cc1OCC [Example 91, 4-(3,4-diethoxyphenyl)-4-oxo-N-[4-(pyridin-4-yl)quinolin-2-yl]butanamide]
CCOc1ccc(C(=O)CCC(=O)Nc2cc(-c3ccc(OCCNC(=O)OC(C)(C)C)cc3)c3ccccc3n2)cc1OCC [Example 92, tert-butyl {2-[4-(2-{[4-(3,4-diethoxyphenyl)-4-oxobutanoyl]amino}quinolin-4-yl)phenoxy]ethyl}carbamate]
CCOc1ccc(C(=O)CCC(=O)Nc2cc(-c3ccc(OCCCN(C)C)cc3)c3ccccc3n2)cc1OCC [Example 93, 4-(3,4-diethoxyphenyl)-N-(4-{4-[3-(dimethylamino)propoxy]phenyl}quinolin-2-yl)-4-oxobutanamide]
CCOc1ccc(C(=O)CCC(=O)Nc2cc(-c3ccc(OCCN)cc3)c3ccccc3n2)cc1OCC [Example 94, N-{4-[4-(2-aminoethoxy)phenyl]quinolin-2-yl}-4-(3,4-diethoxyphenyl)-4-oxobutanamide]
CCOc1ccc(C(=O)CCC(=O)Nc2cc(-c3ccccc3)cc(Cc3ccccc3)n2)cc1OCC [Example 95, N-(6-benzyl-4-phenylpyridin-2-yl)-4-(3,4-diethoxyphenyl)-4-oxobutanamide]
CCOC(=O)c1c(NC(=O)CCC(=O)c2ccc(OCC)c(OCC)c2)sc(Cc2ccccc2)c1-c1ccccc1 [Example 96, ethyl 5-benzyl-2-{[4-(3,4-diethoxyphenyl)-4-oxobutanoyl]amino}-4-phenylthiophene-3-carboxylate]
CCCc1cc(C(=O)CCC(=O)Nc2cc(-c3ccccc3)c(Cc3ccccc3)s2)ccc1OCC [Example 97, N-(5-benzyl-4-phenyl-2-thienyl)-4-(4-ethoxy-3-propylphenyl)-4-oxobutanamide]
CCOc1ccc(C(=O)CCC(=O)Nc2cc(-c3ccccc3)c(Cc3ccccc3)s2)cc1Br [Example 98, N-(5-benzyl-4-phenyl-2-thienyl)-4-(3-bromo-4-ethoxyphenyl)-4-oxobutanamide]
O=C(CCC(=O)c1ccc2c(c1)CCCC2)Nc1cc(-c2ccccc2)c(Cc2ccccc2)s1 [Example 99, N-(5-benzyl-4-phenyl-2-thienyl)-4-oxo-4-(5,6,7,8-tetrahydronaphthalen-2-yl)butanamide]
CCOc1ccc(C(=O)CCC(=O)Nc2cc(-c3ccccc3)cc(-c3ccccc3)n2)cc1 [Example 102, N-(4,6-diphenylpyridin-2-yl)-4-(4-ethoxyphenyl)-4-oxobutanamide]
O=C(CCC(=O)c1ccc2c(c1)CCO2)Nc1cc(-c2ccccc2)cc(-c2ccccc2)n1 [Example 104, 4-(2,3-dihydro-1-benzofuran-5-yl)-N-(4,6-diphenylpyridin-2-yl)-4-oxobutanamide]
O=C(CCC(=O)c1ccc2c(c1)CCCC2)Nc1cc(-c2ccccc2)cc(-c2ccccc2)n1 [Example 105, N-(4,6-diphenylpyridin-2-yl)-4-oxo-4-(5,6,7,8-tetrahydronaphthalen-2-yl)butanamide]
CCOc1ccc(C(=O)CCC(=O)Nc2cc(-c3cccc(OC)c3)cc(-c3ccccc3)n2)cc1OCC [Example 106, 4-(3,4-diethoxyphenyl)-N-[4-(3-methoxyphenyl)-6-phenylpyridin-2-yl]-4-oxobutanamide]
CCCCOCCOc1cc(NC(=O)CCC(=O)c2ccc(OCC)c(OCC)c2)nc(-c2ccccc2)c1 [Example 107, N-[4-(2-butoxyethoxy)-6-phenylpyridin-2-yl]-4-(3,4-diethoxyphenyl)-4-oxobutanamide]
CCOc1ccc(C(=O)CCC(=O)Nc2cn(-c3ccccc3)nc2-c2ccc(F)cc2)cc1OCC [Example 108, 4-(3,4-diethoxyphenyl)-N-[3-(4-fluorophenyl)-1-phenyl-1H-pyrazol-4-yl]-4-oxobutanamide]
O=C(CCC(=O)c1ccc2c(c1)CCO2)Nc1cc(-c2cccnc2)cc(-c2ccccc2)n1 [Example 114, 4-(2,3-dihydro-1-benzofuran-5-yl)-4-oxo-N-(6′-phenyl-3,4′-bipyridine-2′-yl)butanamide]
O=C(CCC(=O)c1ccc2c(c1)CCO2)Nc1cc(-c2ccoc2)cc(-c2ccccc2)n1 [Example 115, 4-(2,3-dihydro-1-benzofuran-5-yl)-N-[4-(3-furyl)-6-phenylpyridin-2-yl]-4-oxobutanamide]
CCOc1ccc(C(=O)CCC(=O)Nc2cc(-c3ccoc3)cc(-c3ccccc3)n2)cc1OCC [Example 117, 4-(3,4-diethoxyphenyl)-N-[4-(3-furyl)-6-phenylpyridin-2-yl]-4-oxobutanamide]
CCOc1ccc(C(=O)CCC(=O)Nc2cc(-c3cnn(C)c3)cc(-c3ccccc3)n2)cc1OCC [Example 119, 4-(3,4-diethoxyphenyl)-N-[4-(1-methyl-1H-pyrazol-4-yl)-6-phenylpyridin-2-yl]-4-oxobutanamide]
CCOc1ccc(C(=O)CCC(=O)Nc2cc(-c3ccc4c(c3)OCO4)cc(-c3ccccc3)n2)cc1OCC [Example 120, N-[4-(1,3-benzodioxol-5-yl)-6-phenylpyridin-2-yl]-4-(3,4-diethoxyphenyl)-4-oxobutanamide]
CCOc1ccc(C(=O)CCC(=O)Nc2cc(-c3ccc(C#N)cc3)cc(-c3ccccc3)n2)cc1OCC [Example 122, N-[4-(4-cyanophenyl)-6-phenylpyridin-2-yl]-4-(3,4-diethoxyphenyl)-4-oxobutanamide]

IC50, ≤ 0.01 µM:
CCOc1ccc(C(=O)CCC(=O)Nc2cc(-c3ccc4[nH]ccc4c3)cc(-c3ccccc3)n2)cc1OCC [Example 121, 4-(3,4-diethoxyphenyl)-N-[4-(1H-indol-5-yl)-6-phenylpyridin-2-yl]-4-oxobutanamide]
CCOc1ccc(C(=O)CCC(=O)Nc2cc(-c3ccc(O)cc3)cc(-c3ccccc3)n2)cc1OCC [Example 123, 4-(3,4-diethoxyphenyl)-N-[4-(4-hydroxyphenyl)-6-phenylpyridin-2-yl]-4-oxobutanamide]

IC50, 0.5 to 10 µM:
CCOc1ccc(C(=O)CCC(=O)Nc2cc(C(C)(C)C)nn2-c2ccc(C(C)(C)C)cc2)cc1OCC [Example 100, N-[3-tert-butyl-1-(4-tert-butylphenyl)-1H-pyrazol-5-yl]-4-(3,4-diethoxyphenyl)-4-oxobutanamide]
CCOc1ccc(C(=O)CCC(=O)Nc2cc(-c3ccccc3Cl)nn2-c2ccc(C)cc2)cc1OCC [Example 101, N-[3-(2-chlorophenyl)-1-(4-methylphenyl)-1H-pyrazol-5-yl]-4-(3,4-diethoxyphenyl)-4-oxobutanamide]
CCOc1cccc(C(=O)CCC(=O)Nc2cc(-c3ccccc3)cc(-c3ccccc3)n2)c1 [Example 103, N-(4,6-diphenylpyridin-2-yl)-4-(3-ethoxyphenyl)-4-oxobutanamide]
CCOc1ccc(C(=O)CCC(=O)Nc2cn(Cc3ccccc3)nc2-c2ccccc2)cc1 [Example 109, N-(1-benzyl-3-phenyl-1H-pyrazol-4-yl)-4-(4-ethoxyphenyl)-4-oxobutanamide]
CCOc1ccc(C(=O)CCC(=O)Nc2cc(-c3ccc(C4CCCCC4)cc3)cc(-c3ccccc3)n2)cc1OCC [Example 110, N-[4-(4-cyclohexylphenyl)-6-phenylpyridin-2-yl]-4-(3,4-diethoxyphenyl)-4-oxobutanamide]
Cc1ccc(C(=O)CCC(=O)Nc2cc(-c3ccccc3)cc(-c3ccccc3)n2)cc1C [Example 111, 4-(3,4-dimethylphenyl)-N-(4,6-diphenylpyridin-2-yl)-4-oxobutanamide]
CCOc1ccc(C(=O)CCC(=O)Nc2cc(-c3ccc(C(=O)OC)cc3)cc(-c3ccccc3)n2)cc1OCC [Example 112, methyl 4-(2-{[4-(3,4-diethoxyphenyl)-4-oxobutanoyl]amino}-6-phenylpyridin-4-yl)benzoate]
CCOc1ccc(C(=O)CCC(=O)Nc2cc(-c3ccc(C(=O)O)cc3)cc(-c3ccccc3)n2)cc1OCC [Example 113, 4-(2-{[4-(3,4-diethoxyphenyl)-4-oxobutanoyl]amino}-6-phenylpyridin-4-yl)benzoic acid]
O=C(CCC(=O)c1ccc2c(c1)CCO2)Nc1cc(-c2ccncc2)cc(-c2ccccc2)n1 [Example 116, 4-(2,3-dihydro-1-benzofuran-5-yl)-4-oxo-N-(6-phenyl-4,4′-bipyridin-2-yl)butanamide]
CCOc1ccc(C(=O)CCC(=O)Nc2cc(-c3cccn3C(=O)OC(C)(C)C)cc(-c3ccccc3)n2)cc1OCC [Example 118, tert-butyl 2-(2-{[4-(3,4-diethoxyphenyl)-4-oxobutanoyl]amino}-6-phenylpyridin-4-yl)-1H-pyrrole-1-carboxylate]
